{"source": "patent US20100267779A1", "about": "“Novel Compounds and Methods of Using Them” (SYNDAX PHARMACEUTICALS, INC., priority 2007, published 2010)", "test_system": "HDAC", "assay": "Alternative HDAC activity assay (Cayman Chemicals fluorescent-based HDAC activity assay)", "format": "biochemical", "conditions": "acetylated lysine substrate, HDAC developer, fluorescence readout; compared with MS-275", "protocol": "Cayman Chemicals markets a commercial fluorescent-based HDAC activity assay. The assay utilizes a fluorescent-based method for measuring HDAC activity that eliminates radioactivity, extraction or chromatography. The assay requires two steps: first, an acetylated lysine substrate is incubated with samples containing HDAC activity. Deacetylation sensitizes the substrate such that treatment with the HDAC developer in the second step releases a fluorescent product. The fluorophore can be analyzed using a fluorescence plate reader or a fluorometer with […]."}
{"smiles": "C[C@@H](OC(=O)NCc1ccc(C(=O)Nc2ccccc2N)cc1)c1cccnc1", "note": "[(R)-1-(pyridin-3-yl)ethyl 4-(2-aminophenylcarbamoyl)benzylcarbamate]", "values": [{"measurement": "HDAC activity (fluorescent-based HDAC activity assay, FIG. 1)", "value": "activity similar to MS-275"}]}
{"smiles": "C[C@H](OC(=O)NCc1ccc(C(=O)Nc2ccccc2N)cc1)c1cccnc1", "note": "[(S)-1-(pyridin-3-yl)ethyl 4-(2-aminophenylcarbamoyl)benzylcarbamate]", "values": [{"measurement": "HDAC activity (fluorescent-based HDAC activity assay, FIG. 1)", "value": "activity similar to MS-275"}]}
